Biological target: T1, Mineralocorticoid receptor (Homo sapiens, UniProt P08235)
T1 sequence (P08235 whole entry): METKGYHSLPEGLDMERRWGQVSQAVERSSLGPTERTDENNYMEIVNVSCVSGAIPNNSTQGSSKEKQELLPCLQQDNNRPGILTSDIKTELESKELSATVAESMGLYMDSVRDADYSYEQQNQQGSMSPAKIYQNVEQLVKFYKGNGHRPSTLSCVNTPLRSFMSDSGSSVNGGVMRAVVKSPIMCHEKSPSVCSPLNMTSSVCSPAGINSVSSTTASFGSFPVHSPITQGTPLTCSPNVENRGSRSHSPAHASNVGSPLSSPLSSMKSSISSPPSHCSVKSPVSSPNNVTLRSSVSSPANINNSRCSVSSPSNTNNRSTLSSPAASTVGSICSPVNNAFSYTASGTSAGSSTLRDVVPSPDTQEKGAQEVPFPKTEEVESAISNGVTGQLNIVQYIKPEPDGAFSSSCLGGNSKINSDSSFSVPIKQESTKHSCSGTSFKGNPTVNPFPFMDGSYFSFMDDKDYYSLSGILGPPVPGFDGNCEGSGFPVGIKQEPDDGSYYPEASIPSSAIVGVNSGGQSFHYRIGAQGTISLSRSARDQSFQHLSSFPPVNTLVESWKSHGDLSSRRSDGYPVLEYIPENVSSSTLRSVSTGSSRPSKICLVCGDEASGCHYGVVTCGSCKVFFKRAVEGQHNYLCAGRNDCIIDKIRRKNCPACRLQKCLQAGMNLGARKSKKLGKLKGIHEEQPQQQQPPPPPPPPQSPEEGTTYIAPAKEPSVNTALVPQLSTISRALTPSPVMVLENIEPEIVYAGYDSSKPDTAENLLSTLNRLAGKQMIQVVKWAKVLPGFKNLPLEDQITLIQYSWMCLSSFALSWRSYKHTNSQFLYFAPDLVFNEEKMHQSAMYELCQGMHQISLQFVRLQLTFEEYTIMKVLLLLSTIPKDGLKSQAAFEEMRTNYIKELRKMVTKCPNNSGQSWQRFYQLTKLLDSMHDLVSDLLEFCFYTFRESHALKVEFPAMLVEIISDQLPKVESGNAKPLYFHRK
Assay: Antagonist activity at Gal4-fused human MR LBD (671 to 984 residues) expressed in African Green Monkey CV-1 cells assessed as inhibition of aldosterone-induced transactivation activity after 20 hrs by luciferase reporter gene assay

Cc1c(C(=O)Nc2ccc(S(C)(=O)=O)cc2)cc(CCO)n1-c1ccc(Cl)cc1C(F)(F)F
IC50: 3.7 nM
